Experiments:
[1] = molecular target: Phosphatidylinositol 4,5-bisphosphate 3-kinase catalytic subunit alpha isoform (Homo sapiens, UniProt P42336); experiment: biochemical
[2] = molecular target: Phosphatidylinositol 4,5-bisphosphate 3-kinase catalytic subunit gamma isoform (Homo sapiens, UniProt P48736); experiment: biochemical
[3] = molecular target: Serine/threonine-protein kinase mTOR (Homo sapiens, UniProt P42345)
[4] = molecular target: T1, Phosphatidylinositol 4,5-bisphosphate 3-kinase catalytic subunit delta isoform (Homo sapiens, UniProt O00329); experiment: biochemical
T1 sequence (O00329 whole entry): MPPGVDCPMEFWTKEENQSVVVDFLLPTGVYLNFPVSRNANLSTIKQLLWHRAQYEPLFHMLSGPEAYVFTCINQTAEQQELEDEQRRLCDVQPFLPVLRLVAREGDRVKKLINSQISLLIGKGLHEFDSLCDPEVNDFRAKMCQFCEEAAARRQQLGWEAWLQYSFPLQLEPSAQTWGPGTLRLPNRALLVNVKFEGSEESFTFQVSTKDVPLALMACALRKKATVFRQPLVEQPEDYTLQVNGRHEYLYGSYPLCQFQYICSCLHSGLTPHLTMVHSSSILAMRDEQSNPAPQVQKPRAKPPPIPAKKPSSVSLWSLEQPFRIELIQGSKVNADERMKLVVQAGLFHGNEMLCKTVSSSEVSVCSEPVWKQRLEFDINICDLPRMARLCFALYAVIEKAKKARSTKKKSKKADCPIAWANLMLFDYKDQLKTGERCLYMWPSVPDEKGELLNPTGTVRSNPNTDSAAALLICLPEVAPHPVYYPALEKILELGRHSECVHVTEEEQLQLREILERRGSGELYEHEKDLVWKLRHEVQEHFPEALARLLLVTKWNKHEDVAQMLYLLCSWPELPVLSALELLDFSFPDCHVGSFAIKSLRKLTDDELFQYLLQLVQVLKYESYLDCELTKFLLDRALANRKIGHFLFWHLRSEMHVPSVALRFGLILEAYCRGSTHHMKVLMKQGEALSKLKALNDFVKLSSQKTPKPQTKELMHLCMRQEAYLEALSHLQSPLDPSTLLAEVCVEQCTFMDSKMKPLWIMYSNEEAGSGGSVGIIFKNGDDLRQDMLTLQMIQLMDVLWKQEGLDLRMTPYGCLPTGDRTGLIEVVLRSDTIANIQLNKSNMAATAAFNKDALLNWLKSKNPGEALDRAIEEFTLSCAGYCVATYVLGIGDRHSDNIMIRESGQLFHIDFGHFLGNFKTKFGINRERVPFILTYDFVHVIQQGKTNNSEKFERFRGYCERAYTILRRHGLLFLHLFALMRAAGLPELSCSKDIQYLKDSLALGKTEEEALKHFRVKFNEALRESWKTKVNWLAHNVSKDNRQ

[5] = in vitro; details: rat, liver microsomes
[6] = molecular target: Phosphatidylinositol 4,5-bisphosphate 3-kinase catalytic subunit beta isoform (Homo sapiens, UniProt P42338); experiment: biochemical
[7] = molecular target: Serine/threonine-protein kinase B-raf (Homo sapiens, UniProt P15056, V600E)
Serine/threonine-protein kinase B-raf, sequence (P15056 2-766 V600E limits assumed): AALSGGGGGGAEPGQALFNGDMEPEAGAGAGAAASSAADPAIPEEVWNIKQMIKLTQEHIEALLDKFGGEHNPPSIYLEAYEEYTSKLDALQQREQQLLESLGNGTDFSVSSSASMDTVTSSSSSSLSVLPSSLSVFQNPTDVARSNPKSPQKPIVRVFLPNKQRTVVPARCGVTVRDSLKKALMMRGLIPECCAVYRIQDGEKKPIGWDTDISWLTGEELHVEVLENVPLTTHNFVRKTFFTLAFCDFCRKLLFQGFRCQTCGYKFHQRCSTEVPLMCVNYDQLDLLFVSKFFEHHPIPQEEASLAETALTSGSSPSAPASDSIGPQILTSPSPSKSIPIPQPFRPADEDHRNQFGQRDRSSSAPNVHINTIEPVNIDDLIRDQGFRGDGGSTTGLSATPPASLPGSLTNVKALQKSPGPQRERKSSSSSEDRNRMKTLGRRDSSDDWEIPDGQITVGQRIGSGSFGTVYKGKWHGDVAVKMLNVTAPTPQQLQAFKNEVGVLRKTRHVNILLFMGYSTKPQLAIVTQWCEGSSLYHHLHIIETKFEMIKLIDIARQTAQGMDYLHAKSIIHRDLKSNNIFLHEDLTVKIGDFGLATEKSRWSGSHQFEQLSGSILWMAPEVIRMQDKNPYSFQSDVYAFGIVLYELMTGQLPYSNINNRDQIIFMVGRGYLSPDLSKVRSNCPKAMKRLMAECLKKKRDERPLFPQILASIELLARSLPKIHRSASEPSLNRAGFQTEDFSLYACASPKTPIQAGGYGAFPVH

Phosphatidylinositol 4,5-bisphosphate 3-kinase catalytic subunit alpha isoform, sequence (P42336 whole entry, canonical isoform): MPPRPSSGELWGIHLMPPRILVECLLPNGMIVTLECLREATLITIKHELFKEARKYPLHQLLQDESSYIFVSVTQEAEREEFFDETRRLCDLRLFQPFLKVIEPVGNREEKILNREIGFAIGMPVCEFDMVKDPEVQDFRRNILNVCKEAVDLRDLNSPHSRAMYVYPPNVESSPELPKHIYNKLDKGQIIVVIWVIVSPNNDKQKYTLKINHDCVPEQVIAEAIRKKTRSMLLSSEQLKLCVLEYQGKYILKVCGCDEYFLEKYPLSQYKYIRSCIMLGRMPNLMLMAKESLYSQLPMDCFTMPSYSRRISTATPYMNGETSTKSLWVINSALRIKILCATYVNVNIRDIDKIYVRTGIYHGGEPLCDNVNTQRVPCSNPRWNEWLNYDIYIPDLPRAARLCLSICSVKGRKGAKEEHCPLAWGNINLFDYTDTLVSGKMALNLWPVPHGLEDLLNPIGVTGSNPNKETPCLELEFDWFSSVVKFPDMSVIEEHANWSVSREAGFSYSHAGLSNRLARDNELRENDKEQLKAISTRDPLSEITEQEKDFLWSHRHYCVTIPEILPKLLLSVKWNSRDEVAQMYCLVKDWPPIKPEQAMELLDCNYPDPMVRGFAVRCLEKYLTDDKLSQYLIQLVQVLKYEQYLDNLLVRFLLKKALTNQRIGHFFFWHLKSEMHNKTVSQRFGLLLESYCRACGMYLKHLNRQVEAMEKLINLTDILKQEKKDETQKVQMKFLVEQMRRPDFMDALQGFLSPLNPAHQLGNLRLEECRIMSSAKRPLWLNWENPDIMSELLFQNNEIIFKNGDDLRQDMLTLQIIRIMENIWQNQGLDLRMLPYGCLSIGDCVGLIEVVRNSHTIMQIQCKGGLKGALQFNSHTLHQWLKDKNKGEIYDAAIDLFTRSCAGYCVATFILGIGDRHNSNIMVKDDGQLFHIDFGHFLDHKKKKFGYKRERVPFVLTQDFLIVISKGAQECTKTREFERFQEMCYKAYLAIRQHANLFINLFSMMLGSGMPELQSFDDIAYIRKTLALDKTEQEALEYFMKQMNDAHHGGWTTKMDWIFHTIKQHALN
Phosphatidylinositol 4,5-bisphosphate 3-kinase catalytic subunit beta isoform, sequence (P42338 whole entry, canonical isoform): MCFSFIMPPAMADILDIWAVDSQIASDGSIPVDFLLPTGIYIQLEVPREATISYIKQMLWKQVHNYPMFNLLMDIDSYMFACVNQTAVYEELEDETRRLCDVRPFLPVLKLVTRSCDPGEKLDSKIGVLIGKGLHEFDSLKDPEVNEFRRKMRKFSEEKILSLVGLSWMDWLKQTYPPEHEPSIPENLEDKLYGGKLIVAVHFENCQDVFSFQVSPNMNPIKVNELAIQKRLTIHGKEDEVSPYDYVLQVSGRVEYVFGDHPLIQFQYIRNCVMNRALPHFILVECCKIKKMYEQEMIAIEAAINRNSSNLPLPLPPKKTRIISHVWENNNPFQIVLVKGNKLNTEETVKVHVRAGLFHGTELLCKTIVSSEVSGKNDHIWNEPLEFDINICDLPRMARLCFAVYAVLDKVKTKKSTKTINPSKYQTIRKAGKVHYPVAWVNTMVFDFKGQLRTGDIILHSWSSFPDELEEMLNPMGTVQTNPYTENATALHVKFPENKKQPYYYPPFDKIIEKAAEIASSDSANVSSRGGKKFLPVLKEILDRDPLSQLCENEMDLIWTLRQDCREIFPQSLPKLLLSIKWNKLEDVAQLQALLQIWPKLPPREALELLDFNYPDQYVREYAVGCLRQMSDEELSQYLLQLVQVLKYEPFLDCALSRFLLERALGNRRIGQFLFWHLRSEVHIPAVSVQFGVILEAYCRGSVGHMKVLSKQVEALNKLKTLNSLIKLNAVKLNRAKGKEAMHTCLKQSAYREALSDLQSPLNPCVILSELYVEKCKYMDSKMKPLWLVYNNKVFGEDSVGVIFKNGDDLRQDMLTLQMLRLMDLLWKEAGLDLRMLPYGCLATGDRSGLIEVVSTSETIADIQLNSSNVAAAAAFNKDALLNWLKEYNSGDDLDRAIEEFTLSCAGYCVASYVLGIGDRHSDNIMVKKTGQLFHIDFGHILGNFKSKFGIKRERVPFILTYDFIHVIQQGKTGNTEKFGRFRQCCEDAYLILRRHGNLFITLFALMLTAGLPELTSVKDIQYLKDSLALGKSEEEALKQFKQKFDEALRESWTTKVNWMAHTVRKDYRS
Phosphatidylinositol 4,5-bisphosphate 3-kinase catalytic subunit gamma isoform, sequence (P48736 whole entry, canonical isoform): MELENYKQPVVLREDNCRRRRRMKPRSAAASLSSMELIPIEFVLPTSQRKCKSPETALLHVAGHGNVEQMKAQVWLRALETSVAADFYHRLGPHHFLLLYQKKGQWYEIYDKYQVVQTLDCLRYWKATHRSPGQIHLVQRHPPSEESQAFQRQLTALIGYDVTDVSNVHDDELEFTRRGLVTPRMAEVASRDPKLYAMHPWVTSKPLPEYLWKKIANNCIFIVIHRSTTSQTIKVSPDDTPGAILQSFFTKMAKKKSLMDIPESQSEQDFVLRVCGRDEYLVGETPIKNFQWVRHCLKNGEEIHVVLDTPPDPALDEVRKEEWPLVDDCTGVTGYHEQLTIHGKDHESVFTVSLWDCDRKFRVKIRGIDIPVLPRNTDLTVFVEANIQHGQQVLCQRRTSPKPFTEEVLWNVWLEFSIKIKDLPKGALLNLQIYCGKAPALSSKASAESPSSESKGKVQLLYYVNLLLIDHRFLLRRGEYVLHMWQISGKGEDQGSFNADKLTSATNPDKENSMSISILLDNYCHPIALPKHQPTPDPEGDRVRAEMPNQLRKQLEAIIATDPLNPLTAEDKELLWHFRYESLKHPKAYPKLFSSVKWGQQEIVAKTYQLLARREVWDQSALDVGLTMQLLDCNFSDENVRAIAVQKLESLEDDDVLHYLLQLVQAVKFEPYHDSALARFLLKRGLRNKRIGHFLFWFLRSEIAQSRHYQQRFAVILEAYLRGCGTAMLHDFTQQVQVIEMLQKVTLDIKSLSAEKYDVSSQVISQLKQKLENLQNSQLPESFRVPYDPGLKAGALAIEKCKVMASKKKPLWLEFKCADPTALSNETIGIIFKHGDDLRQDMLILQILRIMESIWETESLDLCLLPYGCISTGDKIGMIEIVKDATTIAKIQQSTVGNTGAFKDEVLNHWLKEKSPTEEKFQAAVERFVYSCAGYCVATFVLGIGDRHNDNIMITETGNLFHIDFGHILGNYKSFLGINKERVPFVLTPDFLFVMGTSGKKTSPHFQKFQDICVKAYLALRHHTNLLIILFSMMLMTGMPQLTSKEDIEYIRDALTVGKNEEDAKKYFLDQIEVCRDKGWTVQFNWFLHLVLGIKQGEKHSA

| Ki [1] [nM] | Ki [2] [nM] | IC50 [3] [nM] | Ki [4] [nM] | microsomal CLint [5] [µL/min/mg] | Ki [6] [nM] | IC50 [7] [nM] | SMILES |
| --- | --- | --- | --- | --- | --- | --- | --- |
| 33 | 46 | > 10000 | 21 | 242 | 61 | – | COc1ccc(Nc2ncc(CN3CCCN(S(C)(=O)=O)CC3)cc2-c2nc(C)nc(N)n2)cn1 |
| 73 | 30 | > 10000 | 13 | 21 | 13 | – | COc1ccc(Nc2ncc(CN3CCS(=O)(=O)CC3)cc2-c2nc(C)nc(N)n2)cn1 |
| 59 | 11 | – | 15 | 62 | 48 | – | COc1ccc(Nc2ncc(Cc3ccccc3)cc2-c2nc(C)nc(N)n2)cn1 |
| – | 210 | – | 60 | 37 | 65 | – | COc1ccc(Nc2ncc(CN3CCCC3)cc2-c2nc(C)nc(N)n2)cn1 |
| – | 80 | – | 19 | 51 | 11 | – | COc1ccc(Nc2ncc(CN3CCCCC3)cc2-c2nc(C)nc(N)n2)cn1 |
| – | 17 | – | 18 | 31 | 7 | – | COc1ccc(Nc2ncc(CN3CCOCC3)cc2-c2nc(C)nc(N)n2)cn1 |
| – | 110 | – | 63 | 23 | 41 | – | COc1ccc(Nc2ncc(CN3CCC(O)CC3)cc2-c2nc(C)nc(N)n2)cn1 |
| – | 100 | – | 51 | 20 | 59 | – | COc1ccc(Nc2ncc(CN3CC[C@@H](CO)C3)cc2-c2nc(C)nc(N)n2)cn1 |
| – | 200 | – | 27 | 35 | 17 | – | COc1ccc(Nc2ncc(CN3CCNCC3)cc2-c2nc(C)nc(N)n2)cn1 |
| – | 130 | – | 34 | 48 | 44 | – | COc1ccc(Nc2ncc(CN3CCN(C)CC3)cc2-c2nc(C)nc(N)n2)cn1 |
| 94 | 18 | 3700 | 6 | 20 | 18 | – | COC(=O)N1CCN(Cc2cnc(Nc3ccc(OC)nc3)c(-c3nc(C)nc(N)n3)c2)CC1 |
| 84 | 8 | 1400 | 3 | 17 | 16 | – | COc1ccc(Nc2ncc(CN3CCN(C(=O)N(C)C)CC3)cc2-c2nc(C)nc(N)n2)cn1 |
| – | 9 | – | 6 | 73 | 7 | – | COc1ccc(Nc2ncc(CN3CCN(S(=O)(=O)N(C)C)CC3)cc2-c2nc(C)nc(N)n2)cn1 |
| 290 | 40 | – | 39 | 58 | 38 | – | COc1ccc(Nc2ncc(Cl)cc2-c2nc(C)nc(N)n2)cn1 |
| – | 22 | – | 92 | 111 | 75 | – | COc1ccc(Nc2ncc(Br)cc2-c2nc(C)nc(N)n2)cn1 |
| – | 54 | > 10000 | 110 | 243 | 86 | – | COc1ccc(Nc2ncc(C)cc2-c2nc(C)nc(N)n2)cn1 |
| – | 9 | – | 7 | 86 | 15 | – | COc1cnc(Nc2ccc(OC)nc2)c(-c2nc(C)nc(N)n2)c1 |
| – | 24 | – | 20 | 43 | 56 | – | COc1ccc(Nc2ncc(CO)cc2-c2nc(C)nc(N)n2)cn1 |
| 49 | 9 | > 10000 | 10 | 58 | 20 | – | COCc1cnc(Nc2ccc(OC)nc2)c(-c2nc(C)nc(N)n2)c1 |

| Ki [1] [nM] | Ki [2] [nM] | IC50 [3] [nM] | Ki [4] [nM] | microsomal CLint [5] [µL/min/mg] | Ki [6] [nM] | IC50 [7] [nM] | SMILES |
| --- | --- | --- | --- | --- | --- | --- | --- |
| – | 99 | – | 30 | 31 | 67 | – | COCCNCc1cnc(Nc2ccc(OC)nc2)c(-c2nc(C)nc(N)n2)c1 |
| 22 | 4 | > 10000 | 4 | 67 | 9 | – | COc1ccc(Nc2ncc(N3CCOCC3)cc2-c2nc(C)nc(N)n2)cn1 |
| – | 2 | – | 2 | 83 | 3 | – | COc1ccc(Nc2ncc(C3=CCOCC3)cc2-c2nc(C)nc(N)n2)cn1 |
| 39 | 21 | 1400 | 16 | 23 | 7 | – | COc1ccc(Nc2ncc(N3CCN(C)CC3)cc2-c2nc(C)nc(N)n2)cn1 |
| – | – | – | 7 | 25 | 89 | – | COc1ccc(Nc2ncc(-c3ccc(C)nc3)cc2-c2nc(C)nc(N)n2)cn1 |
| – | 6 | – | 6 | 24 | 6 | – | COc1ccc(Nc2ncc(-c3cnn(C)c3)cc2-c2nc(C)nc(N)n2)cn1 |
| – | 140 | – | 50 | 37 | 22 | – | COc1ccc(Nc2ncc(CN3CCC3)cc2-c2nc(C)nc(N)n2)cn1 |
| – | 12 | – | 350 | 44 | – | > 1000 | Cc1nc(-c2cccnc2Nc2cccc3[nH]ncc23)c2nc[nH]c2n1 |
| – | 23 | 560 | 360 | 90 | 130 | – | Cc1nc(-c2cccnc2Nc2cccc3[nH]ccc23)c2[nH]cnc2n1 |
| > 10000 | – | > 10000 | > 10000 | 115 | 9700 | – | c1cnc(Nc2cccc3n[nH]cc23)c(-c2ncnc3nc[nH]c23)c1 |
| 8300 | 1100 | – | 5700 | 109 | > 10000 | – | COc1ccc(Nc2ncccc2-c2ncnc3nc[nH]c23)cn1 |
| 640 | 380 | – | 310 | 190 | 580 | > 1000 | COc1ccc(Nc2ccccc2-c2nc(C)nc(N)n2)cn1 |
| 620 | 690 | – | 240 | 133 | 320 | – | COc1ccc(Nc2cnccc2-c2nc(C)nc(N)n2)cn1 |
| 1300 | 480 | > 10000 | 910 | 96 | 610 | – | COc1ccc(Nc2cccnc2-c2nc(C)nc(N)n2)cn1 |
| 120 | 59 | – | 62 | 110 | 81 | > 1000 | COc1ccc(Nc2ncncc2-c2nc(C)nc(N)n2)cn1 |
| 520 | 90 | – | 300 | 41 | 740 | > 1000 | COc1ccc(Nc2nccnc2-c2nc(C)nc(N)n2)cn1 |
| – | – | – | 9 | 80 | 3 | > 1000 | Cc1nc(N)nc(-c2cccnc2Nc2cccc(O)c2)n1 |
| – | 29 | – | 37 | 51 | 23 | > 1000 | COc1ccc(Nc2ncccc2-c2nc(C)nc(N)n2)cn1 |
| – | 5 | – | 3 | 23 | 5 | – | COc1ccc(Nc2ncc(CN3CCC(S(C)(=O)=O)C3)cc2-c2nc(C)nc(N)n2)cn1 (racemic) |

| SMILES | Ki [1] [nM] | Ki [2] [nM] | IC50 [3] [nM] | Ki [4] [nM] | microsomal CLint [5] [µL/min/mg] | Ki [6] [nM] | IC50 [7] [nM] |
| --- | --- | --- | --- | --- | --- | --- | --- |
| COc1ccc(Nc2ncccc2-c2nc(C)nc3nc[nH]c23)cn1 | – | 12 | – | – | 68 | 45 | > 1000 |

Source: ChEMBL document CHEMBL2163268, “Structure-based design of a novel series of potent, selective inhibitors of the class I phosphatidylinositol 3-kinases” (J Med Chem, 2012)
